In assay [1] the target is Serine/threonine-protein kinase/endoribonuclease IRE1 (Homo sapiens, UniProt O75460). The assay is described as follows: Not found.
Description: Not found

Assay [2] concerns the target Serine/threonine-protein kinase/endoribonuclease IRE2 (Human, UniProt Q76MJ5). The experiment in a line: Not found.
Description: Not found

The term IC50 denotes the point on the concentration scale where inhibition reaches its midpoint. Higher therefore signals weaker potency.

Serine/threonine-protein kinase/endoribonuclease IRE1, sequence (O75460 whole entry): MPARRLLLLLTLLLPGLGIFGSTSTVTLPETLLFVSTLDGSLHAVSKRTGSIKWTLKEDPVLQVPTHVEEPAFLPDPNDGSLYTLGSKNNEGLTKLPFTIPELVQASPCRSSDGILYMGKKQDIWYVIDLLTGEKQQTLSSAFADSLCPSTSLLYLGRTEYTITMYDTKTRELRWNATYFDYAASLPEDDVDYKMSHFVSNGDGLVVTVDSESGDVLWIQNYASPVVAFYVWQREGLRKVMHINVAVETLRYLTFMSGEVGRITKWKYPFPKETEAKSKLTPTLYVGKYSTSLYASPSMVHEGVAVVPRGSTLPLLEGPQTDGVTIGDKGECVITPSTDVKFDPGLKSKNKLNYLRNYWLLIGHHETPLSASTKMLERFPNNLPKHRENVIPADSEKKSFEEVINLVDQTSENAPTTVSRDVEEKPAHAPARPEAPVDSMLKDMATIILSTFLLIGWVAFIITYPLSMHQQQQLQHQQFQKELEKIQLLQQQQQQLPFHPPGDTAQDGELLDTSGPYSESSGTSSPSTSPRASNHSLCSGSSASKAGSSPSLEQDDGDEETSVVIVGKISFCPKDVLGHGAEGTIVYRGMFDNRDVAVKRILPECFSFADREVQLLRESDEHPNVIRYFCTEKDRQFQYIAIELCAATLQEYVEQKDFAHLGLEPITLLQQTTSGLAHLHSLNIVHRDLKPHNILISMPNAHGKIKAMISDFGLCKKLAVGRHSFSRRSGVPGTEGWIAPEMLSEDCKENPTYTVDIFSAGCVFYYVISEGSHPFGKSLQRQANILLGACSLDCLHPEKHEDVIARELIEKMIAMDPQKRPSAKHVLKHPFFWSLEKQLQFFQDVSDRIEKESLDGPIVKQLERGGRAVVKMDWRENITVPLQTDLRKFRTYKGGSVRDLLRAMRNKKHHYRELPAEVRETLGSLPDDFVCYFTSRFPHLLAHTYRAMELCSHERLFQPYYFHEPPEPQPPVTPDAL
Serine/threonine-protein kinase/endoribonuclease IRE2, sequence (Q76MJ5 whole entry): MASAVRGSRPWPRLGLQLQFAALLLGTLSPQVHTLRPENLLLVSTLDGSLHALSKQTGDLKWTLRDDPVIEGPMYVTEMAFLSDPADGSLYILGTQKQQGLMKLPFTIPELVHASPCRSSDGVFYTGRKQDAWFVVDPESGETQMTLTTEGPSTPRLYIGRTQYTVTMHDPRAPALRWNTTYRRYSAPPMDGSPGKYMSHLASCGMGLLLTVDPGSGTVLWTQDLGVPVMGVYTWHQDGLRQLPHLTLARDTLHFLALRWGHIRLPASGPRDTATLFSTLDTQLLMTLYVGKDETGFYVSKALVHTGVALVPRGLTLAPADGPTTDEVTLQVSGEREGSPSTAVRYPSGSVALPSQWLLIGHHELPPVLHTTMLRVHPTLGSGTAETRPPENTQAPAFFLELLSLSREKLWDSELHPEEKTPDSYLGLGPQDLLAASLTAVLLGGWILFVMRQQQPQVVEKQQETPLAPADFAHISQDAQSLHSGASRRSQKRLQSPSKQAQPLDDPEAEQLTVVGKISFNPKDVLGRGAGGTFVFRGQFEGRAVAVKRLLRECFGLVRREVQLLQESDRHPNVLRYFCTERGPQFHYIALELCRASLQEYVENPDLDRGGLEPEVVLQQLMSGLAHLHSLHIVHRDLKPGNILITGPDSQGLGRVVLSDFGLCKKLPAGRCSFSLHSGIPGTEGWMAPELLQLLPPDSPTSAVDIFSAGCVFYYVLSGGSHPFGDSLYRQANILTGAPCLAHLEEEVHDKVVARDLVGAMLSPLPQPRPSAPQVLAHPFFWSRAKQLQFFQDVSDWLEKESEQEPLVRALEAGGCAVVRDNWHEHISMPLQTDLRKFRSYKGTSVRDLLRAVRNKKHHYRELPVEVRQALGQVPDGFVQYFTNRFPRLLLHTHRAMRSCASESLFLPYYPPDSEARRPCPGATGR

With `Cc1ccc(C(=O)NCc2ccccc2Cl)cc1Oc1ncsc1-c1ccnc(N[C@H]2CCCNC2)n1` [US12391669, Compound 20], the IC50 is 52 nM in assay [1] and > 10000 nM in assay [2].
`c1cc(Cc2nc3ccccc3[nH]2)cc(Oc2ncsc2-c2ccnc(N[C@H]3CCCNC3)n2)c1` [US12391669, Compound 35]: the IC50 in assay [1] stood at 443 nM.

Values taken from BindingDB's records for patent US12391669 (University Of California, 2025).
